Test results taken from patent publication US10435399B2, “HDAC6 inhibitory heterocyclic compound” (TAKEDA PHARMACEUTICAL COMPANY LIMITED, priority 2017, dated 2019).

target: T1, HDAC6 enzyme (Homo sapiens, UniProt Q9UBN7); assay: HDAC6 enzyme inhibitory activity (HDAC-Glo I/II Assay kit); type: biochemical; conditions: 10 μM; wells without enzyme = 100% inhibition; read-out: HDAC6 inhibitory rate (%) (10 μM)
T1 construct: transducing full length HDAC6 gene into Sf-9 insect cells; GST; purchased SignalChem; host or cells: Sf-9 insect cells
T1 sequence (Q9UBN7 1-1215): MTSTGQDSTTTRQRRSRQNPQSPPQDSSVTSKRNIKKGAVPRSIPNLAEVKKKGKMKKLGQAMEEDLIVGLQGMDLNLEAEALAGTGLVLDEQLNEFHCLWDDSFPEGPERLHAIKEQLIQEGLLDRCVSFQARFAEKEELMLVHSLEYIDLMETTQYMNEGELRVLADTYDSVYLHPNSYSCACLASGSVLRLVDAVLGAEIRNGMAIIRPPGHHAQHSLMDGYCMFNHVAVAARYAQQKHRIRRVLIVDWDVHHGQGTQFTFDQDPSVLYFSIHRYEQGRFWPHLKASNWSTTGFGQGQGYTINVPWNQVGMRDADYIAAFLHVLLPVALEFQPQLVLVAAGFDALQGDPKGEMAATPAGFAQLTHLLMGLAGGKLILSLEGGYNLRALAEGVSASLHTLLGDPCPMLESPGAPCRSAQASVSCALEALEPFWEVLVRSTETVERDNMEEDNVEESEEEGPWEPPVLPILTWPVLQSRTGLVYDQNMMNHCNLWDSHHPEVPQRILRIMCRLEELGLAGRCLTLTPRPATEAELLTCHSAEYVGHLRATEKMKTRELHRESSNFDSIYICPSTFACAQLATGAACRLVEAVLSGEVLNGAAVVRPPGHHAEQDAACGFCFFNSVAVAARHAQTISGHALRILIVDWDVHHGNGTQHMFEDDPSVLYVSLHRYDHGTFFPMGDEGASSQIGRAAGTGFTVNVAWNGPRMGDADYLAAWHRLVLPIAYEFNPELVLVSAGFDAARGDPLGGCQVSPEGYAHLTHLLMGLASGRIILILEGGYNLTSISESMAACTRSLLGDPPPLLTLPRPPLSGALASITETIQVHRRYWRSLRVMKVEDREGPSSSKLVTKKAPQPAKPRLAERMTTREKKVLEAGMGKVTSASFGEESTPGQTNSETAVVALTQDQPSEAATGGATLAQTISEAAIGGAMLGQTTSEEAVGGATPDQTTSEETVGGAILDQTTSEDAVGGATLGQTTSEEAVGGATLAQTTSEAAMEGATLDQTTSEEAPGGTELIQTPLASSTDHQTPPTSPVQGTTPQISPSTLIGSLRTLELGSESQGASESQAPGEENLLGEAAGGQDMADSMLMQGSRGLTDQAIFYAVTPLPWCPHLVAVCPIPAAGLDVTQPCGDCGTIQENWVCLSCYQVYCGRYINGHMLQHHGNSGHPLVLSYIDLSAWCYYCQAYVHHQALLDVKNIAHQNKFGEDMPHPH
How it was run: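 Full-length human HDAC6 (GST-purified, Sf-9 expressed) preincubated with compound 60 min at room temperature in Tris-HCl pH 7.5 buffer with MgCl2, KCl, NaCl, glutathione, Tween-20. HDAC-Glo I/II substrate-developer then added, 20 min room temperature, luminescence read. Inhibition relative to no-enzyme wells as 100%.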

inhibition at 10 µM [%] | SMILES
99 | COC(=O)N[C@@H]1CCCC[C@H]1N1Cc2ncc(-c3nnc(C(F)F)o3)cc2C1=O [Example 161, methyl ((1R,2R)-2-(3-(5-(difluoromethyl)-1,3,4-oxadiazol-2-yl)-5-oxo-5,7-dihydro-6H-pyrrolo[3,4-b]pyridin-6-yl)cyclohexyl)carbamate]
97 | CC(F)(F)C(=O)N[C@@H]1CCCC[C@H]1N1Cc2ncc(-c3nnc(C(F)F)o3)cc2C1=O [Example 162, N-((1R,2R)-2-(3-(5-(difluoromethyl)-1,3,4-oxadiazol-2-yl)-5-oxo-5,7-dihydro-6H-pyrrolo[3,4-b]pyridin-6-yl)cyclohexyl)-2,2-difluoropropanamide]
98 | O=C(N[C@@H]1CCCC[C@H]1N1Cc2ncc(-c3nnc(C(F)F)o3)cc2C1=O)c1cccc(Cl)c1 [Example 163, 3-chloro-N-((1R,2R)-2-(3-(5-(difluoromethyl)-1,3,4-oxadiazol-2-yl)-5-oxo-5,7-dihydro-6H-pyrrolo[3,4-b]pyridin-6-yl)cyclohexyl)benzamide]
99 | O=C(N[C@@H]1CCCC[C@H]1N1Cc2ncc(-c3nnc(C(F)F)o3)cc2C1=O)c1ccccn1 [Example 164, N-((1R,2R)-2-(3-(5-(difluoromethyl)-1,3,4-oxadiazol-2-yl)-5-oxo-5,7-dihydro-6H-pyrrolo[3,4-b]pyridin-6-yl)cyclohexyl)pyridine-2-carboxamide]
99 | O=C(N[C@@H]1CCCC[C@H]1N1Cc2c(F)cc(-c3nnc(C(F)F)o3)cc2C1=O)C(F)F [Example 165, N-((1R,2R)-2-(6-(5-(difluoromethyl)-1,3,4-oxadiazol-2-yl)-4-fluoro-1-oxo-1,3-dihydro-2H-isoindol-2-yl)cyclohexyl)-2,2-difluoroacetamide]
97 | CCC(=O)N[C@@H]1CCCC[C@H]1N1C(=O)c2ccc(-c3nnc(C(F)F)o3)cc2C1=O [Example 166, N-((1R,2R)-2-(5-(5-(difluoromethyl)-1,3,4-oxadiazol-2-yl)-1,3-dioxo-1,3-dihydro-2H-isoindol-2-yl)cyclohexyl)propanamide]
91 | N[C@@H]1CCCC[C@H]1N1Cc2c(F)cc(-c3nnc(C(F)F)o3)cc2C1=O [Example 173, 2-((1R,2R)-2-aminocyclohexyl)-6-(5-(difluoromethyl)-1,3,4-oxadiazol-2-yl)-4-fluoroisoindolin-1-one]
100 | O=C1c2cc(-c3nnc(C(F)F)o3)cc(F)c2CN1[C@@H]1COCC[C@H]1NC(=O)C1(C(F)(F)F)CC1 [Example 176, N-((3S,4R)-3-(6-(5-(difluoromethyl)-1,3,4-oxadiazol-2-yl)-4-fluoro-1-oxo-1,3-dihydro-2H-isoindol-2-yl)tetrahydro-2H-pyran-4-yl)-1-(trifluoromethyl)cyclopropanecarboxamide]
97 | O=C1CCCN1[C@@H]1CCCC[C@H]1N1Cc2ncc(-c3nnc(C(F)F)o3)cc2C1=O [Example 177, 3-(5-(difluoromethyl)-1,3,4-oxadiazol-2-yl)-6-((1R,2R)-2-(2-oxopyrrolidin-1-yl)cyclohexyl)-6,7-dihydro-5H-pyrrolo[3,4-b]pyridin-5-one]
100 | O=C1c2ccccc2CN1[C@@H]1CCCC[C@H]1N1Cc2ncc(-c3nnc(C(F)F)o3)cc2C1=O [Example 179, 3-(5-(difluoromethyl)-1,3,4-oxadiazol-2-yl)-6-((1R,2R)-2-(1-oxo-1,3-dihydro-2H-isoindol-2-yl)cyclohexyl)-6,7-dihydro-5H-pyrrolo[3,4-b]pyridin-5-one]

Continued, molecule first:

SMILES | inhibition at 10 µM [%]
Cc1nn(C)cc1-c1ccccc1N1Cc2ccc(-c3nnc(C(F)F)o3)cc2C1=O [Example 159, 6-(5-(difluoromethyl)-1,3,4-oxadiazol-2-yl)-2-(2-(1,3-dimethyl-1H-pyrazol-4-yl)phenyl)isoindolin-1-one] | 100
Cn1nccc1-c1ccccc1N1Cc2ccc(-c3nnc(C(F)F)o3)cc2C1=O [Example 160, 6-(5-(difluoromethyl)-1,3,4-oxadiazol-2-yl)-2-(2-(1-methyl-1H-pyrazol-5-yl)phenyl)isoindolin-1-one] | 101
CC(C)(C)OC(=O)N[C@@H]1COCC[C@H]1N1Cc2c(F)cc(-c3nnc(C(F)F)o3)cc2C1=O [Example 167, tert-butyl ((3S,4R)-4-(6-(5-(difluoromethyl)-1,3,4-oxadiazol-2-yl)-4-fluoro-1-oxo-1,3-dihydro-2H-isoindol-2-yl)tetrahydro-2H-pyran-3-yl)carbamate] | 100
CC(C)(C)OC(=O)N1CCOC[C@@H]1CN1Cc2c(F)cc(-c3nnc(C(F)F)o3)cc2C1=O [Example 168, tert-butyl (3S)-3-((6-(5-(difluoromethyl)-1,3,4-oxadiazol-2-yl)-4-fluoro-1-oxo-1,3-dihydro-2H-isoindol-2-yl)methyl)morpholine-4-carboxylate] | 100
N#Cc1cccc(-c2ccccc2N2Cc3ccc(-c4nnc(C(F)F)o4)cc3C2=O)c1 [Example 169, 2′-(6-(5-(difluoromethyl)-1,3,4-oxadiazol-2-yl)-1-oxo-1,3-dihydro-2H-isoindol-2-yl)biphenyl-3-carbonitrile] | 101
COc1cccc(-c2ccccc2N2Cc3ccc(-c4nnc(C(F)F)o4)cc3C2=O)c1 [Example 170, 6-(5-(difluoromethyl)-1,3,4-oxadiazol-2-yl)-2-(3′-methoxybiphenyl-2-yl)isoindolin-1-one] | 102
O=C1c2cc(-c3nnc(C(F)F)o3)ccc2CN1c1ccccc1-c1cccc(C(F)(F)F)c1 [Example 171, 6-(5-(difluoromethyl)-1,3,4-oxadiazol-2-yl)-2-(3′-(trifluoromethyl)biphenyl-2-yl)isoindolin-1-one] | 101
CS(=O)(=O)c1cccc(-c2ccccc2N2Cc3ccc(-c4nnc(C(F)F)o4)cc3C2=O)c1 [Example 172, 6-(5-(difluoromethyl)-1,3,4-oxadiazol-2-yl)-2-(3′-(methylsulfonyl)biphenyl-2-yl)isoindolin-1-one] | 100
O=C1c2cc(-c3nnc(C(F)F)o3)cc(F)c2CN1[C@@H]1COCC[C@H]1NC(=O)C(F)(F)C(F)(F)F [Example 174, N-((3S,4R)-3-(6-(5-(difluoromethyl)-1,3,4-oxadiazol-2-yl)-4-fluoro-1-oxo-1,3-dihydro-2H-isoindol-2-yl)tetrahydro-2H-pyran-4-yl)-2,2,3,3,3-pentafluoropropanamide] | 102
CC(C)(C(=O)N[C@@H]1CCOC[C@H]1N1Cc2c(F)cc(-c3nnc(C(F)F)o3)cc2C1=O)C(F)(F)F [Example 175, N-((3S,4R)-3-(6-(5-(difluoromethyl)-1,3,4-oxadiazol-2-yl)-4-fluoro-1-oxo-1,3-dihydro-2H-isoindol-2-yl)tetrahydro-2H-pyran-4-yl)-3,3,3-trifluoro-2,2-dimethylpropanamide] | 100
CC1(C)OB(c2ccccc2N2Cc3ccc(-c4nnc(C(F)F)o4)cc3C2=O)OC1(C)C [Example 178, 6-(5-(difluoromethyl)-1,3,4-oxadiazol-2-yl)-2-(2-(4,4,5,5-tetramethyl-1,3,2-dioxaborolan-2-yl)phenyl)isoindolin-1-one] | 41
O=C(N[C@@H]1CCOC[C@H]1N1Cc2c(F)cc(-c3nnc(C(F)F)o3)cc2C1=O)c1ccccc1Cl [Example 180, 2-chloro-N-((3S,4R)-3-(6-(5-(difluoromethyl)-1,3,4-oxadiazol-2-yl)-4-fluoro-1-oxo-1,3-dihydro-2H-isoindol-2-yl)tetrahydro-2H-pyran-4-yl)benzamide] | 100
O=C(N[C@@H]1CCOC[C@H]1N1Cc2c(F)cc(-c3nnc(C(F)F)o3)cc2C1=O)c1cccc(Cl)c1 [Example 181, 3-chloro-N-((3S,4R)-3-(6-(5-(difluoromethyl)-1,3,4-oxadiazol-2-yl)-4-fluoro-1-oxo-1,3-dihydro-2H-isoindol-2-yl)tetrahydro-2H-pyran-4-yl)benzamide] | 97
